Among the data in patent US20240116912A1, “COMPOUNDS AND METHODS FOR MODULATING FXR” (Terns Pharmaceuticals, Inc., priority 2020, published 2024) are EC50 values, retold here.

SMILES strings stand for the structures.

The target in experiment [1] is full length human FXR protein (Homo sapiens (Human), UniProt Q96RI1). The experiment is described as follows: FXR cellular assay (FXR-SRCP β-gal enzyme fragment complementation in CHO-K1 cells, chemiluminescence). Format: cell-based. To be noted: CHO-K1 cells with SRCP-EA and ProLink-labeled FXR, 0-10 micromolar compound, 37° C. for 6h, read-out: EC50 FXR-cell Luminescence/. The essentials:
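CHO-K1 cells stably expressing ProLink-tagged full-length FXR and SRCP-EA treated with compound (0-10 micromolar, 1% DMSO) for 6 h at 37 °C. Ligand-driven FXR-coactivator binding reconstitutes β-gal; chemiluminescence read after 1 h detection reagent at room temperature.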

Experiment [2] concerns the target ligand binding domain (LBD) of recombinant human FXR (Homo sapiens (Human), UniProt Q96RI1). Put plainly: FXR cell free coactivator (SRC-1) recruitment assay, TR-FRET. To be noted: FXR LBD (amino acids 244-476) with labeled SRC-1 domain, 25° C. for 60 minutes, activity relative to CDCA maximum; read-out: EC50 FXR- Biochemical TR-FRET/μM. The essentials: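 Purified SF9-expressed FXR LBD (aa 244-476) was incubated with compounds (0-10 micromolar) and labeled SRC-1 interaction domain in TR-FRET coregulator buffer G, 60 min at 25° C, 1.2% DMSO. Activity at each concentration was taken as percent of maximal CDCA response to build dose-response curves.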

Chain of full length human FXR protein (Q96RI1 whole entry, the tested form may be a part): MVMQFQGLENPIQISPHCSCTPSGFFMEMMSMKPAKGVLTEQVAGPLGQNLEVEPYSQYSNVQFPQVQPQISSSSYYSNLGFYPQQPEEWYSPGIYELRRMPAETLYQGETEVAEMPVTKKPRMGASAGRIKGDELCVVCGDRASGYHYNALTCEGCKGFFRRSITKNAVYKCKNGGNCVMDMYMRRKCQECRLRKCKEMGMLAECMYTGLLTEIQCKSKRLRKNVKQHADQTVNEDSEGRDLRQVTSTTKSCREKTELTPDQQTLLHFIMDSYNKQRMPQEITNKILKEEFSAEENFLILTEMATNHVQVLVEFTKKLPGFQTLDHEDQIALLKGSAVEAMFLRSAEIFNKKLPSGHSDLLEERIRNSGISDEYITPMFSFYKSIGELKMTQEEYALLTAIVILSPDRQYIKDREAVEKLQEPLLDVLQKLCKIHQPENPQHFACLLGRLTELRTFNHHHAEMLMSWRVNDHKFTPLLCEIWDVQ
Chain of ligand binding domain (LBD) of recombinant human FXR (Q96RI1 254-486): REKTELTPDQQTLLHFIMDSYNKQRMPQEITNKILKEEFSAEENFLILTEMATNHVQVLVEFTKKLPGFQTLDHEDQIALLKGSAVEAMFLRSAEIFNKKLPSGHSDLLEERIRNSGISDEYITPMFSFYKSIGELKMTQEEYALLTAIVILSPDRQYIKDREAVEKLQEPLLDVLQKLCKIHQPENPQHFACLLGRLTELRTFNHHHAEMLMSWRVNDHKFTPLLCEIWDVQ
Chain of ligand binding domain (LBD) of recombinant human FXR (Q15788 whole entry partner, the tested form may be a part): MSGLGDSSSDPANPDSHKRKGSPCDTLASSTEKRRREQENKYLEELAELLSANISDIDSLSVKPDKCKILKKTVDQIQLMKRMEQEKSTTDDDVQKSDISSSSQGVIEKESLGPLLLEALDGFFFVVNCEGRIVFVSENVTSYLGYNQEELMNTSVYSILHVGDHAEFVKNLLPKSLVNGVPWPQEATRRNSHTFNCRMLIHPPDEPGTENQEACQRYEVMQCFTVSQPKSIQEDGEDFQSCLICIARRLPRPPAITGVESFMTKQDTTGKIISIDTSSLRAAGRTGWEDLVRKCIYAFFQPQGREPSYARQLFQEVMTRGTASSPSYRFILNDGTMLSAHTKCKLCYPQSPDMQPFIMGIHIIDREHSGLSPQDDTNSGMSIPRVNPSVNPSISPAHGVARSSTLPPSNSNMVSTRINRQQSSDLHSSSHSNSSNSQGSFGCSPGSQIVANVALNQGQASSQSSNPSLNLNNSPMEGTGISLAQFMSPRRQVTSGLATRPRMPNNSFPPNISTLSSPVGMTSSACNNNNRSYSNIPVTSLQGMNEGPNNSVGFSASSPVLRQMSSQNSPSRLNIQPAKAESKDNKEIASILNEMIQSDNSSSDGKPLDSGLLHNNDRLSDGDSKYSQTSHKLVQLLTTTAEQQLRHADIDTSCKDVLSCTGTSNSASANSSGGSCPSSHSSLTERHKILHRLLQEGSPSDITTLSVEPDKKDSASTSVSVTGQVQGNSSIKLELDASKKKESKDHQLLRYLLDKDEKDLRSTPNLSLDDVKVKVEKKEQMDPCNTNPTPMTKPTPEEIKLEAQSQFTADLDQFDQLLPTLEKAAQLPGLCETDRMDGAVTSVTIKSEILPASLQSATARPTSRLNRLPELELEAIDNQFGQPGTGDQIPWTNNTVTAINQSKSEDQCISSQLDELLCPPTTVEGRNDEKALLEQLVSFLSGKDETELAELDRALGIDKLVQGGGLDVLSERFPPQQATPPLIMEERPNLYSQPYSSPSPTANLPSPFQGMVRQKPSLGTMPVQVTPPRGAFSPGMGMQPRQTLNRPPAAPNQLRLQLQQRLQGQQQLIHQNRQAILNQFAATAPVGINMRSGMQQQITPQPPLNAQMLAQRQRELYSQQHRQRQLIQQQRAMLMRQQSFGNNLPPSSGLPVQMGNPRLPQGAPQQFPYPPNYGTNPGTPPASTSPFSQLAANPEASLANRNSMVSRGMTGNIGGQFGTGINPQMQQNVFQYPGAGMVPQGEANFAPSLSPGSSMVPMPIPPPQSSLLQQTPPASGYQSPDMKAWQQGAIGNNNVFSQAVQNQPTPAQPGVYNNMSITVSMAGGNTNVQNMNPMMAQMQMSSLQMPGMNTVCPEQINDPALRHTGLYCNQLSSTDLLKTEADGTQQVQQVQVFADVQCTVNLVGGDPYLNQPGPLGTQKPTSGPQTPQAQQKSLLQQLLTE

In the case of `O=c1cc(-c2ccc(N3[C@@H]4CC[C@H]3C[C@@H](OCc3c(-c5ccccc5OC(F)(F)F)noc3C3CC3)C4)nc2)o[nH]1` [Example 69, 5-(6-((1R,3r,5S)-3-((5-cyclopropyl-3-(2-(trifluoromethoxy)phenyl)isoxazol-4-yl)methoxy)-8-azabicyclo[3.2.1]octan-8-yl)pyridin-3-yl)isoxazol-3(2H)-one], the EC50 came to 57.6 nM in experiment [1] and 0.0095 µM in experiment [2].
As to `Cn1nc(N2CCC(OCc3c(-c4c(Cl)cccc4Cl)noc3C3CC3)CC2)cc1-c1noc(=O)[nH]1` [Example 70, 3-(3-(4-((5-cyclopropyl-3-(2,6-dichlorophenyl)isoxazol-4-yl)methoxy)piperidin-1-yl)-1-methyl-1H-pyrazol-5-yl)-1,2,4-oxadiazol-5(4H)-one], the EC50 in experiment [1] was over 10000 nM; in experiment [2], 0.233 µM.
`C[C@@H]1C[C@H](OCc2c(-c3c(Cl)cccc3Cl)noc2C2CC2)CCN1c1ccc(-c2noc(=O)[nH]2)cn1` [Example 71, 3-(6-((2R,4R)-4-((5-cyclopropyl-3-(2,6-dichlorophenyl)isoxazol-4-yl)methoxy)-2-methylpiperidin-1-yl)pyridin-3-yl)-1,2,4-oxadiazol-5(4H)-one]: the EC50 in experiment [1] was found to be 24.7 nM; in experiment [2], 0.0021 µM.
For `C[C@@H]1C[C@H](OCc2c(-c3ccccc3Cl)noc2C2CC2)CCN1c1ccc(-c2noc(=O)[nH]2)cn1` [Example 72, 3-(6-((2R,4R)-4-((3-(2-chlorophenyl)-5-cyclopropylisoxazol-4-yl)methoxy)-2-methylpiperidin-1-yl)pyridin-3-yl)-1,2,4-oxadiazol-5(4H)-one], in that order: 54.9 nM and 0.0045 µM.
In the case of `C[C@@H]1C[C@H](OCc2c(-c3c(F)cccc3F)noc2C2CC2)CCN1c1ccc(-c2noc(=O)[nH]2)cn1` [Example 73, 3-(6-((2R,4R)-4-((5-cyclopropyl-3-(2,6-difluorophenyl)isoxazol-4-yl)methoxy)-2-methylpiperidin-1-yl)pyridin-3-yl)-1,2,4-oxadiazol-5(4H)-one], the EC50 in experiment [1] came out at 350 nM; in experiment [2], 0.0476 µM.
`O=c1[nH]c(-c2ccc(N3CCC(OCc4c(-c5c(F)cccc5F)noc4C4CC4)CC3)nc2)no1` [Example 74, 3-(6-(4-((5-cyclopropyl-3-(2,6-difluorophenyl)isoxazol-4-yl)methoxy)piperidin-1-yl)pyridin-3-yl)-1,2,4-oxadiazol-5(4H)-one]: the EC50 was found to be 1450 nM in experiment [1] and 0.107 µM in experiment [2].
